Results reported in the supplement of paper PMC13380429.

Assays:
Settings in all cases: 72 h
Caco-2 [1] = assay: cell viability relative to DMSO; higher = less toxic
Calu-3 [2] = assay: as above
HepG2 [3] = assay: as above
U2OS [4] = assay: as above
Vero E6 [5] = assay: as above
Caco-2 [6] = assay: relative viability EC50 (midpoint between 100% and the lowest measured viability); higher = less toxic
Calu-3 [7] = assay: as above
HepG2 [8] = assay: as above
Vero E6 [9] = assay: as above
Caco-2 [10] = assay: drug sensitivity score (DSS) for viability; higher = more toxic; extreme values may be limits of the assay
Calu-3 [11] = assay: as above
HepG2 [12] = assay: as above
U2OS [13] = assay: as above
Vero E6 [14] = assay: as above
U2OS [15] = assay: relative viability EC50 (midpoint between 100% and the lowest measured viability); higher = less toxic

Compound | cell viability (Caco-2 [1]; 1 nM) [%] | cell viability (Caco-2 [1]; 10 nM) [%] | cell viability (Caco-2 [1]; 100 nM) [%] | cell viability (Caco-2 [1]; 1000 nM) [%] | cell viability (Caco-2 [1]; 10000 nM) [%] | cell viability (Calu-3 [2]; 1 nM) [%] | cell viability (Calu-3 [2]; 10 nM) [%] | cell viability (Calu-3 [2]; 100 nM) [%] | cell viability (Calu-3 [2]; 1000 nM) [%] | cell viability (Calu-3 [2]; 10000 nM) [%] | cell viability (HepG2 [3]; 1 nM) [%] | cell viability (HepG2 [3]; 10 nM) [%] | cell viability (HepG2 [3]; 100 nM) [%] | cell viability (HepG2 [3]; 1000 nM) [%] | cell viability (HepG2 [3]; 10000 nM) [%] | cell viability (U2OS [4]; 1 nM) [%] | cell viability (U2OS [4]; 10 nM) [%] | cell viability (U2OS [4]; 100 nM) [%] | cell viability (U2OS [4]; 1000 nM) [%] | cell viability (U2OS [4]; 10000 nM) [%] | cell viability (Vero E6 [5]; 1 nM) [%] | cell viability (Vero E6 [5]; 10 nM) [%] | cell viability (Vero E6 [5]; 100 nM) [%] | cell viability (Vero E6 [5]; 1000 nM) [%] | cell viability (Vero E6 [5]; 10000 nM) [%] | relative viability EC50 (Caco-2 [6]) [µM] | relative viability EC50 (Calu-3 [7]) [µM] | relative viability EC50 (HepG2 [8]) [µM] | relative viability EC50 (Vero E6 [9]) [µM] | drug sensitivity score (Caco-2 [10]) | drug sensitivity score (Calu-3 [11]) | drug sensitivity score (HepG2 [12]) | drug sensitivity score (U2OS [13]) | drug sensitivity score (Vero E6 [14]) | relative viability EC50 (U2OS [15]) [µM]
CC[C@H](C)C(=O)O[C@H]1C[C@@H](C)C=C2C=C[C@H](C)[C@H](CC[C@@H]3C[C@@H](O)CC(=O)O3)[C@H]21 [lovastatin] | 92.2 | 85.7 | 84.2 | 106 | 101 | 87.8 | 106 | 96.3 | 111 | 81.6 | 91.2 | 109 | 96.4 | 92.3 | 88.7 | 94.1 | 108 | 96.2 | 96.6 | 55.4 | 100 | 100 | 96.2 | 102 | 88.1 | > 10 | > 10 | > 10 | > 10 | 0 | 0.2 | 0.1 | 2.8 | 0 | –
Cc1c(N(C)CS(=O)(=O)O)c(=O)n(-c2ccccc2)n1C [metamizole] | 98.5 | 107 | 101 | 104 | 104 | 106 | 90.6 | 102 | 95.7 | 91.1 | 99.9 | 109 | 100 | 91.6 | 102 | – | – | – | – | – | 97.5 | 97.1 | 95.6 | 102 | 101 | > 10 | > 10 | > 10 | > 10 | 0 | 0 | 0 | – | 0 | –
Nc1nc2[nH]cc(CCc3ccc(C(=O)N[C@@H](CCC(=O)O)C(=O)O)cc3)c2c(=O)[nH]1 [pemetrexed] | 105 | 86.8 | 87.4 | 96.5 | 79.3 | 108 | 91.9 | 86.6 | 83.3 | 76 | 85.4 | 100 | 97.3 | 39.4 | 20.1 | 103 | 95.5 | 107 | 100 | 68 | 85.2 | 99.1 | 91.6 | 70.9 | 45 | > 10 | > 10 | 0.558 | 0.768 | 1.2 | 3.7 | 11.8 | 1.4 | 6.5 | –
CC[C@H]1OC(=O)[C@@](C)(F)C(=O)[C@H](C)[C@@H](O[C@@H]2O[C@H](C)C[C@H](N(C)C)[C@H]2O)[C@](C)(OC)C[C@@H](C)C(=O)[C@H](C)[C@H]2N(CCCCn3cc(-c4cccc(N)c4)nn3)C(=O)O[C@]12C [solithromycin] | 105 | 90.6 | 101 | 107 | 93.3 | 104 | 100 | 98.4 | 97.2 | 89.8 | 102 | 102 | 87.4 | 94.2 | 58.7 | 97.6 | 95.5 | 94.6 | 103 | 91 | 98.2 | 100 | 97.2 | 104 | 93.4 | > 10 | > 10 | – | > 10 | 0 | 0 | 3.1 | 0 | 0 | > 10
Oc1cccc(-c2c3nc(c(-c4cccc(O)c4)c4ccc([nH]4)c(-c4cccc(O)c4)c4nc(c(-c5cccc(O)c5)c5ccc2[nH]5)CC4)C=C3)c1 [temoporfin] | 96.2 | 102 | 94.3 | 94.4 | 61.4 | 90 | 96.7 | 104 | 102 | 91.6 | 104 | 105 | 103 | 106 | 86.4 | 100 | 104 | 96.6 | 98.9 | 64.7 | 99.3 | 100 | 98.1 | 90.5 | 77.6 | – | > 10 | > 10 | > 10 | 2.8 | 0 | 0.1 | 1.8 | 1.5 | –
c1ccc2[nH]c(-c3cscn3)nc2c1 [tiabendazole] | – | – | – | – | – | 105 | 102 | 103 | 97.8 | 110 | 116 | 104 | 102 | 97.2 | 106 | – | – | – | – | – | 93.2 | 96.8 | 102 | 96.3 | 106 | – | > 10 | > 10 | > 10 | – | 0 | 0 | – | 0 | –
